SMILES strings stand for the structures. Like-named read-outs stand apart in the source and are kept apart here.

Here are results for 22 compounds from patent US10668047B2, “Aziridine containing DNA alkylating agents” (priority 2015, dated 2020).

The test system of the assay is H460 non-cell lung cancer human tumor cell line. Nature of the assay: In vitro human tumor cell line cytotoxicity (proliferation) assay, AlamarBlue. To be noted: Homo sapiens. It is filed as cell-based. In outline:
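H460 cells (4×10^3/well) attached for 24 h, then were exposed to compound for 2 hours at 37° C. before washout and 70 hrs further growth in fresh medium. Viable cells were measured by AlamarBlue, and IC50 (50% growth inhibition) was determined relative to media-only control.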
On the technique in general: Resazurin is reduced to fluorescent resorufin, in cell work by metabolically active cells.

[1] abbreviates: NCI-H460, H460 cells, under air, 2 hrs exposure, wash, then 70 hrs growth, read-out: IC50 (air).
The mark [2] stands for this setting: NCI-H460, H460 cells, under nitrogen, 2 hrs exposure, wash, then 70 hrs growth, read-out: IC50 (N2).
[3] abbreviates: NCI-H460, read-out: IC50 (N2), H460 cells, under nitrogen, 2 hrs exposure, wash, then 70 hrs growth.
The mark [4] stands for this setting: NCI-H460, read-out: IC50 (air), H460 cells, under air, 2 hrs exposure, wash, then 70 hrs growth.

By IC50 is commonly meant the concentration at which inhibition is half-maximal. With `CC(OP(=O)(N1CC1)N1CC1)c1ccc([N+](=O)[O-])c(C#N)c1` (centres unmarked) [compound 2710], the IC50 is, setting by setting: under setting [1], 3000 nM; under setting [2], 30 nM.

Consider `CC(C)(C)[Si](C)(C)OCCC(OP(=O)(N1CC1)N1CC1)c1ccc([N+](=O)[O-])cc1` (centres unmarked) [compound 2712], for which the IC50 is 300 nM under setting [1] and 200 nM under setting [2].

As for `O=[N+]([O-])c1ccc(C(CCO)OP(=O)(N2CC2)N2CC2)cc1` (centres unmarked) [compound 2714], the half-inhibitory concentration (IC50) amounted to 94000 nM under setting [1] and 500 nM under setting [2].

For the compound `CC(OP(=O)(N1CC1)N1CC1)c1cc(F)c([N+](=O)[O-])cc1F` (centres unmarked) [compound 2721], the 50% inhibitory concentration (IC50) came out at 9000 nM under setting [1] and 20 nM under setting [2].

On to `CC1=NCCN1c1cc(C(C)OP(=O)(N2CC2)N2CC2)ccc1[N+](=O)[O-]` (centres unmarked) [compound 2722], for which the IC50 by setting is: under setting [1], 5000 nM; under setting [2], 900 nM.

`CC(OP(=O)(N1CC1)N1CC1)c1ccc([N+](=O)[O-])c(N2CCNC2(C)O)c1` (centres unmarked) [compound 2723]: the IC50 reads like this: under setting [1], 420000 nM; under setting [2], 29000 nM.

For `CC(OP(=O)(N1CC1)N1CC1)c1ccc([N+](=O)[O-])c(NS(C)(=O)=O)c1` (centres unmarked) [compound 2726], the half-inhibitory concentration (IC50) is, setting by setting: under setting [1], 19000 nM; under setting [2], 200 nM.

On to `CC(OP(=O)(N1CC1)N1CC1)c1ccc([N+](=O)[O-])c(-n2cncn2)c1` (centres unmarked) [compound 2727], for which the IC50 by setting is: under setting [1], 31000 nM; under setting [2], 200 nM.

On to `CC(OP(=O)(N1CC1)N1CC1)c1ccc([N+](=O)[O-])c(-n2cnc([N+](=O)[O-])c2)c1` (centres unmarked) [compound 2728], for which the IC50 runs as follows: under setting [3], 200 nM; under setting [4], 22000 nM.

In the case of `CCN(CC)c1cc(C(C)OP(=O)(N2CC2)N2CC2)c(F)cc1[N+](=O)[O-]` (centres unmarked) [compound 2730], the half-maximal inhibitory concentration (IC50) reads like this: under setting [1], 22000 nM; under setting [2], 700 nM.

With `CC(OP(=O)(N1CC1)N1CC1)c1cc(-n2ccnc2)c([N+](=O)[O-])cc1F` (centres unmarked) [compound 2731], the IC50 was found to be 13000 nM under setting [1] and 100 nM under setting [2].

On to `CC(OP(=O)(N1CC1)N1CC1)c1cc(N2CCN(C)CC2)c([N+](=O)[O-])cc1F` (centres unmarked) [compound 2732], for which the IC50 was determined as 23000 nM under setting [1] and 200 nM under setting [2].

On to `CC(OP(=O)(N1CC1)N1CC1)c1cc(-n2cncn2)c([N+](=O)[O-])cc1F` (centres unmarked) [compound 2733], for which the IC50 was found to be 2800 nM under setting [1] and 30 nM under setting [2].

With `CC(OP(=O)(N1CC1)N1CC1)c1ccc([N+](=O)[O-])c(-n2ccc3ccccc32)c1` (centres unmarked) [compound 2734], the IC50 was determined as 2500 nM under setting [1] and 1600 nM under setting [2].

Regarding `CCCCCCCCN(C)c1cc(C(C)OP(=O)(N2CC2)N2CC2)ccc1[N+](=O)[O-]` (centres unmarked) [compound 2735], the IC50 amounted to 3100 nM under setting [1] and 2000 nM under setting [2].

As to `CC(OP(=O)(N1CC1)N1CC1)c1ccc([N+](=O)[O-])c(N(C)CCN(C)C)c1` (centres unmarked) [compound 2736], the IC50 came to 150000 nM under setting [1] and 2800 nM under setting [2].

For `CC(OP(=O)(N1CC1)N1CC1)c1ccc([N+](=O)[O-])c(-n2cnc3ccccc32)c1` (centres unmarked) [compound 2737], the IC50 by setting is: under setting [1], 21000 nM; under setting [2], 200 nM.

For the compound `Cc1nccn1-c1cc(C(C)OP(=O)(N2CC2)N2CC2)ccc1[N+](=O)[O-]` (centres unmarked) [compound 2738], the IC50 by setting is: under setting [1], 20000 nM; under setting [2], 200 nM.

In the case of `CC(OP(=O)(N1CC1)N1CC1)c1ccc([N+](=O)[O-])c(N2CCCC[C@H]2C)c1` (some centres unmarked) [compound 2740], the concentration for half-maximal inhibition (IC50) amounted to 24000 nM under setting [1] and 1400 nM under setting [2].

Take `CC(OP(=O)(N1CC1)N1CC1)c1cc(-n2cnc([N+](=O)[O-])c2)c([N+](=O)[O-])cc1F` (centres unmarked) [compound 2742]: the half-inhibitory concentration (IC50) is, setting by setting: under setting [3], 100 nM; under setting [4], 3000 nM.

On to `CC(OP(=O)(N1CC1)N1CC1)c1cc(-n2cncc2[N+](=O)[O-])c([N+](=O)[O-])cc1F` (centres unmarked) [compound 2743], for which the half-inhibitory concentration (IC50) runs as follows: under setting [3], 200 nM; under setting [4], 3700 nM.

With `CC(OP(=O)(N1CC1)N1CC1)c1cc(-n2cnc3ccccc32)c([N+](=O)[O-])cc1F` (centres unmarked) [compound 2744], the IC50 amounted to 2700 nM under setting [1] and 50 nM under setting [2].
